According to US20190076461A1, “MATERIALS AND METHODS FOR TREATING HYPOXIC CONDITIONS” (MitoGenetics, LLC, priority 2016, published 2019):

What was measured:
Type in all cases: cell-based
Conditions in all cases: 24 hour incubation, vs vehicle treated cells
[1] = tested on: COX8A (cytochrome c oxidase subunit VIIIA); test: DNA microarray of embryonic chicken liver cells incubated with selenomethionine: COX8A expression
Experimental: (§1) Embryonic chicken kidney and liver cells were obtained from Charles River Laboratories, Inc. Cells were cultured in 75 cc flasks. Each flask represented a treatment group as follows: Control, 1 nM selenomethionine. Treatments consisted of 24 hour incubations with selenomethionine. After that period, samples were processed for microarray analysis. Experiments were performed in triplicate. DNA microarray analyses were performed using a system provided by Agilent. Arrays included four arrays per chip (Agilent 4×44K chip). Total RNA was reverse transcribed (1000 ng) using T7 primers and labeled and transcribed using Cyanine-3 dye. Each array was hybridized with at least 1.65 μg of labeled cRNA at 65° C. for 18 hours. Arrays were scanned using an Agilent array scanner. The microarray platform can determine a minimum of a 1.5 fold change in gene expression. Fold changes between homozygous ZDF rats fed potosaccharide for 28 days vs homozygous ZDF rats fed an equivalent amount of vehicle (control) were examined. In addition, gene expression was measured in heterozygous ZDF (lean rats) fed with vehicle only and compared to gene expression in homozygous ZDF control rats. Fold changes were used to calculate a percent restoration by using the fold changes between homozygous ZDF rats fed potosaccharide and lean control rats.

[2] = tested on: COX7A2 (cytochrome c oxidase subunit VIIa polypeptide 2); test: DNA microarray of embryonic chicken liver cells incubated with selenomethionine: COX7A2 expression
Experimental: as §1

[3] = tested on: COX10 (COX10 homolog, cytochrome c oxidase assembly protein, heme A: farnesyltransferase); test: DNA microarray of embryonic chicken liver cells incubated with selenomethionine: COX10 expression
Experimental: as §1

[4] = tested on: MOCS2 (molybdenum cofactor synthesis 2); test: DNA microarray of embryonic chicken liver cells incubated with selenomethionine: MOCS2 expression
Experimental: as §1

[5] = tested on: ATOX1 (ATX1 antioxidant protein 1 homolog); test: DNA microarray of embryonic chicken liver cells incubated with selenomethionine: ATOX1 expression
Experimental: as §1

[6] = tested on: COX19 (COX19 cytochrome c oxidase assembly homolog); test: DNA microarray of embryonic chicken liver cells incubated with selenomethionine: COX19 expression
Experimental: as §1

SMILES: C[Se]CC[C@H](N)C(=O)O [selenomethione, L-selenomethionine]
- Fold Change (1 nM Se vs Control), COX8A [1]: 1.5 fold
- Fold Change (1 nM Se vs Control), COX7A2 [2]: 2.2 fold
- Fold Change (1 nM Se vs Control), COX10 [3]: 1.4 fold
- Fold Change (1 nM Se vs Control), MOCS2 [4]: 2.2 fold
- Fold Change (1 nM Se vs Control), ATOX1 [5]: 1.4 fold
- Fold Change (1 nM Se vs Control), COX19 [6]: 1.3 fold
